The source of these data is patent US12552694B2, “Use of trivalent metals to enhance aquatic pesticide efficacy, surface water, and sediment quality while minimizing risk to aquatic biota” (SePRO Corporation, priority 2022, dated 2026).

Read-outs that look alike come from different tables or passages of the source.

Data set [1] can be described thus: Example 1: capacity of additives to bind dissolved La and Ce (ICP-OES). Type of data set: physicochemical.
The nature of data set [2]: Example 4: bound La and Ce over time and final pH (FIG. 1). The format is physicochemical. Conditions: after the final samples (30 minutes), continuously stirred; control 5.6.
The next data set concerns duckweed (Lemna spp.). The experiment in a line: Example 7: duckweed plant coverage (Canopeo) after herbicides with and without La/Ce. Type of data set: in vivo. Conditions: for Plant coverage, 3 Days Post: 3 days post treatment; for Plant coverage, 5 Days Post: 5 days post treatment; for Plant coverage, 7 Days Post: 7 days post treatment; for Plant coverage, Pre-Treat.: prior to treatments (baseline).

In the next data set the test system is duckweed. Conditions: 24 hours. The procedure: In one exemplary experiment, 16-oz cups were filled with 400 mL of well water containing approximately 100 μg-P/L as phosphate. One cup was left as the no biomass control and approximately 8 g (±0.5 g) of actively growing duckweed were added to the other cups. One cup was left as a control and diquat (as Weedtrine® D) was added to each of the other cups at the following rates: 50 μg/L. 100 μg/L, 200 μg/L, and 300 μg/L. These samples were then placed under artificial lighting with a scheduled 16-hour light period and 8-hour dark period. […] Samples then were briefly stirred and allowed to sit under the lighting. After 2 hours, water samples were collected with a syringe, filtered with a 0.22 μm nylon filter, acidified with nitric acid, and analyzed for lanthanum and cerium concentration.

Where [3] appears, read: test sample: La/Ce stock in 50 mL deionized water with 90-110 mg additive.

For the molecule `O=[Si]([O-])[O-].[Na+].[Na+]` [Sodium metasilicate (anhydrous), sodium metasilicate (anhydrous)], the pH in data set [1] (setting [3]) amounted to 13.

Molecule `[O]=[Mg]` [Magnesium oxide, magnesium oxide] displayed a pH in data set [1] of 7.5. Further, the pH of beaker in data set [2] is 8.0 (±0.1).

As to “copper ethanolamine [Copper ethanolamine only]”, the “% Change in plant coverage” value in the data set with duckweed (Lemna spp.) (3 Days Post vs pre-treatment) is −2%. Also, in the data set with duckweed (Lemna spp.) (5 Days Post vs pre-treatment), the “% Change in plant coverage” value is recorded as −89%. Also, in the data set on duckweed (Lemna spp.) (7 Days Post vs pre-treatment), the “% Change in plant coverage” value was −89%. Moreover, in the data set on duckweed (Lemna spp.), the “Plant coverage, 3 Days Post” value stood at 35%; the “Plant coverage, 5 Days Post” value came to 4%; the “Plant coverage, 7 Days Post” value is reported as 4%; the “Plant coverage, Pre-Treat.” value came to 35%.

Consider fluridone [Fluridone only], for which the “% Change in plant coverage” value in the data set with duckweed (Lemna spp.) (3 Days Post vs pre-treatment) is −8%. Also, the “% Change in plant coverage” value in the data set on duckweed (Lemna spp.) (5 Days Post vs pre-treatment) is −15%. The “% Change in plant coverage” value in the data set with duckweed (Lemna spp.) (7 Days Post vs pre-treatment) is reported as −14%. Moreover, in the data set on duckweed (Lemna spp.), the “Plant coverage, 3 Days Post” value is recorded as 23%; the “Plant coverage, 5 Days Post” value was determined as 22%; the “Plant coverage, 7 Days Post” value is listed as 22%; the “Plant coverage, Pre-Treat.” value amounted to 25%.

Molecule `O=C([O-])CC(O)(CC(=O)[O-])C(=O)[O-].[Na+].[Na+].[Na+]` [Sodium citrate, sodium citrate] returned a pH in data set [1] of 8.

With `[Ca+2].[OH-].[OH-]` [Calcium hydroxide, calcium hydroxide], the pH in data set [1] was found to be 14. Moreover, in data set [2], the pH of beaker was 8.7 (±0.1).

In the case of `NC(=O)CC[C@H](N)C(=O)O` [Glutamine, glutamine], the pH in data set [1] (setting [3]) is recorded as 7.

`O=C([O-])[O-].[Ca+2]` [Calcium carbonate, calcium carbonate] showed a pH in data set [1] of 7.5.

Turning to `O.O=C([O-])C(=O)[O-].[K+].[K+]` [Potassium oxalate (monohydrate), potassium oxalate (monohydrate)], the pH in data set [1] amounted to 7.

`Cc1nn(-c2cc(CC(Cl)C(=O)O)c(Cl)cc2F)c(=O)n1C(F)F` (centres unmarked) [Carfentrazone only, carfentrazone]: the “% Change in plant coverage” value in the data set with duckweed (Lemna spp.) (3 Days Post vs pre-treatment) worked out at 13%. Also, the “% Change in plant coverage” value with duckweed (Lemna spp.) (5 Days Post vs pre-treatment) is given as −29%. Also, the “% Change in plant coverage” value in the data set with duckweed (Lemna spp.) (7 Days Post vs pre-treatment) is on record as −17%. Also, in the data set on duckweed (Lemna spp.), the “Plant coverage, 3 Days Post” value was found to be 39%; the “Plant coverage, 5 Days Post” value amounted to 24%; the “Plant coverage, 7 Days Post” value is recorded as 29%; the “Plant coverage, Pre-Treat.” value is 34%.

With `[Na+].[OH-]` [Sodium hydroxide, sodium hydroxide], the pH in data set [1] turned out to be 14.

`O=C([O-])C(O)C(O)C(=O)[O-].[Na+].[Na+]` (centres unmarked) [Sodium tartrate, sodium tartrate] registered a pH in data set [1] of 6.5.

Take `C=CC(=O)[O-].[Na+]` [Sodium acrylate, sodium acrylate]: the pH in data set [1] is on record as 7.

For the molecule `c1cc[n+]2c(c1)-c1cccc[n+]1CC2` [Diquat only, diquat], the “% Change in plant coverage” value is recorded as −75% in the data set with duckweed (Lemna spp.) (3 Days Post vs pre-treatment), −89% in the data set with duckweed (Lemna spp.) (5 Days Post vs pre-treatment) and −92% in the data set on duckweed (Lemna spp.) (7 Days Post vs pre-treatment). Moreover, in the data set on duckweed (Lemna spp.), the “Plant coverage, 3 Days Post” value amounted to 10%. For the same molecule, the “Plant coverage, 5 Days Post” value in the data set on duckweed (Lemna spp.) turned out to be 4%. The “Plant coverage, 7 Days Post” value in the data set with duckweed (Lemna spp.) stood at 3%. The “Plant coverage, Pre-Treat.” value in the data set on duckweed (Lemna spp.) amounted to 40%. In addition, the Perceived injury in the data set with duckweed (50 μg/L diquat) is listed as 20%; with duckweed (100 μg/L diquat) it was 40%; in the data set on duckweed (200 μg/L diquat), 50%; in the data set with duckweed (300 μg/L diquat), 80%.
